Laboratory results from PubChem BioAssay (NCI).
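Protocol summary: plate cells (96-well), add compound at 5 concentrations, incubate 48 h, interpolate endpoints linearly. GI50: concentration for 50% inhibition of growth. At the TGI there is no net growth.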

Experiments:
Test in all cases: NCI anticancer screen, dose series, 48 h
[1] = tested on: SF-268 CNS
[2] = tested on: SNB-19 CNS
[3] = tested on: SK-MEL-2 melanoma
[4] = tested on: LOX IMVI melanoma
[5] = tested on: CCRF-CEM leukemia
[6] = tested on: HCT-116 colon
[7] = tested on: T-47D breast
[8] = tested on: HS 578T breast
[9] = tested on: IGROV1 ovarian
[10] = tested on: RPMI-8226 leukemia
[11] = tested on: HOP-92 NSCLC
[12] = tested on: K-562 leukemia
[13] = tested on: NCI-H226 lung
[14] = tested on: PC-3 prostate
[15] = tested on: BT-549 breast
[16] = tested on: MOLT-4 leukemia
[17] = tested on: SK-MEL-5 melanoma
[18] = tested on: NCI/ADR-RES ovarian
[19] = tested on: U251 CNS
[20] = tested on: UO-31 renal
[21] = tested on: MCF7 breast
[22] = tested on: UACC-257 melanoma
[23] = tested on: SK-OV-3 ovarian
[24] = tested on: SF-539 CNS
[25] = tested on: M14 melanoma
[26] = tested on: OVCAR-4 ovarian
[27] = tested on: DU-145 prostate
[28] = tested on: RXF 393 renal
[29] = tested on: SW-620 colon
[30] = tested on: EKVX NSCLC
[31] = tested on: MDA-MB-231 breast
[32] = tested on: HL-60(TB) leukemia
[33] = tested on: OVCAR-3 ovarian
[34] = tested on: NCI-H522 lung
[35] = tested on: SR leukemia
[36] = tested on: HCC-2998 colon
[37] = tested on: NCI-H23 lung
[38] = tested on: ACHN renal
[39] = tested on: HOP-62 NSCLC
[40] = tested on: A549 NSCLC
[41] = tested on: NCI-H460 lung
[42] = tested on: SK-MEL-28 melanoma
[43] = tested on: OVCAR-8 ovarian
[44] = tested on: COLO 205 colon
[45] = tested on: HCT-15 colon
[46] = tested on: KM12 colon
[47] = tested on: 786-0 renal
[48] = tested on: SNB-75 CNS
[49] = tested on: SN12C renal
[50] = tested on: A498 renal
[51] = tested on: OVCAR-5 ovarian
[52] = tested on: UACC-62 melanoma
[53] = tested on: SF-295 CNS
[54] = tested on: MALME-3M melanoma
[55] = tested on: TK-10 renal
[56] = tested on: HT29 colon

## COC(=O)C1=C(C(=O)OC)C23C=C(C)C1C2=C(C)C1(CC1)[C@@](C)(O)C3=O (stereo not given in full)
[1]
  GI50: 273 nM
  TGI: 3070 nM
[2]
  GI50: 359 nM
  TGI: 13500 nM
[3]
  GI50: 250 nM
  TGI: 630 nM
[4]
  GI50: 358 nM
  TGI: 2890 nM
[5]
  GI50: 4800 nM
  TGI: > 100000 nM
[6]
  GI50: 370 nM
  TGI: 11500 nM
[7]
  GI50: 515 nM
  TGI: 6400 nM
[8]
  GI50: 1370 nM
  TGI: 7610 nM
[9]
  GI50: 275 nM
[10]
  GI50: 7360 nM
  TGI: 52600 nM
[11]
  GI50: 310 nM
  TGI: 1530 nM
[12]
  GI50: 6070 nM
  TGI: > 100000 nM
[13]
  GI50: 438 nM
  TGI: 3070 nM
[14]
  GI50: 386 nM
  TGI: 32900 nM
[15]
  GI50: 404 nM
  TGI: 3300 nM
[16]
  GI50: 6620 nM
  TGI: > 100000 nM
[17]
  GI50: 164 nM
  TGI: 314 nM
[18]
  GI50: 303 nM
  TGI: 4240 nM
[19]
  GI50: 311 nM
  TGI: > 42800 nM
[20]
  GI50: 185 nM
  TGI: 464 nM
[21]
  GI50: 346 nM
  TGI: > 100000 nM
[22]
  GI50: 864 nM
  TGI: 3820 nM
[23]
  GI50: 250 nM
  TGI: 700 nM
[24]
  GI50: 337 nM
  TGI: 1560 nM
[25]
  GI50: 316 nM
  TGI: 1460 nM
[26]
  GI50: 484 nM
  TGI: 6430 nM
[27]
  GI50: 197 nM
  TGI: > 100000 nM
[28]
  GI50: 179 nM
  TGI: 341 nM
[29]
  GI50: 9140 nM
  TGI: 30200 nM
[30]
  GI50: 615 nM
  TGI: 5420 nM
[31]
  GI50: 309 nM
  TGI: 1560 nM
[32]
  GI50: 1550 nM
  TGI: 15900 nM
[33]
  GI50: 336 nM
  TGI: 2120 nM
[34]
  GI50: 495 nM
  TGI: 5750 nM
[35]
  GI50: 3640 nM
  TGI: > 100000 nM
[36]
  GI50: 245 nM
  TGI: 693 nM
[37]
  GI50: 170 nM
  TGI: 851 nM
[38]
  GI50: 416 nM
  TGI: > 100000 nM
[39]
  GI50: 267 nM
  TGI: 754 nM
[40]
  GI50: 255 nM
  TGI: 858 nM
[41]
  GI50: 203 nM
  TGI: 1190 nM
[42]
  GI50: 714 nM
  TGI: 3970 nM
[43]
  GI50: 359 nM
  TGI: > 24600 nM
[44]
  GI50: 350 nM
  TGI: 1620 nM
[45]
  GI50: 403 nM
  TGI: 12800 nM
[46]
  GI50: 868 nM
  TGI: 11000 nM
[47]
  GI50: 323 nM
  TGI: 3050 nM
[48]
  GI50: 198 nM
  TGI: 547 nM
[49]
  GI50: 435 nM
  TGI: 13300 nM
[50]
  GI50: 188 nM
  TGI: 490 nM
[51]
  GI50: 365 nM
  TGI: 8890 nM
[52]
  GI50: 259 nM
  TGI: 792 nM
[53]
  GI50: 282 nM
[54]
  GI50: 449 nM
  TGI: 2160 nM
[55]
  GI50: 1350 nM
  TGI: 11300 nM
[56]
  GI50: 337 nM
  TGI: 16900 nM
